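Briefly, cells in 96-well plates were exposed to five compound concentrations for 48 h, and endpoints were estimated by linear interpolation. Definition used: TGI = concentration required for complete inhibition of growth.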
Tests used:
Test in all cases: growth of human tumour cells (NCI), 48 h
[1] = test system: CAKI-1 renal
[2] = test system: COLO 205 colon
[3] = test system: HS 578T breast
[4] = test system: MALME-3M melanoma
[5] = test system: MDA-N
[6] = test system: MOLT-4 leukemia
[7] = test system: PC-3 prostate
[8] = test system: SK-MEL-28 melanoma
[9] = test system: SN12C renal
[10] = test system: UACC-257 melanoma

| SMILES | TGI [1] [µM] | TGI [2] [µM] | TGI [3] [µM] | TGI [4] [µM] | TGI [5] [µM] | TGI [6] [µM] | TGI [7] [µM] | TGI [8] [µM] | TGI [9] [µM] | TGI [10] [µM] |
| --- | --- | --- | --- | --- | --- | --- | --- | --- | --- | --- |
| c1ccc(N=C2c3ccccc3CN2c2ccccc2)cc1 | > 100 | > 100 | > 100 | > 100 | > 100 | > 100 | > 100 | > 100 | > 100 | > 100 |
| S=c1ssc2c3ssc(=S)c3n(Cc3ccccc3)c12 | > 100 | > 100 | > 100 | > 100 | > 100 | 38.9 | > 100 | > 100 | > 100 | > 100 |
| COc1ccc(OC)c(C2CCc3nc4nc(N)nc(N)c4cc3C2)c1 (stereo not given) | > 56.2 | 17.9 | 16.1 | 3.57 | 5.04 | 5.3 | 11.5 | 6.34 | 3.33 | 6.1 |
| CCOC(=O)c1nc2cc(N3CCOCC3)c(F)cc2[nH]c1=O | > 100 | > 100 | > 100 | > 100 | > 100 | > 100 | > 100 | > 100 | > 100 | > 100 |
| Cc1[nH]c2ncn3nc(C(Cl)(Cl)Cl)nc3c2c1Cc1ccccc1 | > 100 | > 100 | > 100 | > 100 | > 100 | > 100 | > 100 | > 100 | > 100 | > 100 |
| Clc1ccc(-c2nn3c(CCCCCCCCc4nnc5sc(-c6ccc(Cl)cc6)nn45)nnc3s2)cc1 | 46.1 | > 100 | > 100 | > 90.4 | > 94.7 | 33.2 | 69.7 | > 79.7 | > 63.1 | > 95.2 |
| CCC1(C)C=Cc2c(cc(OC)c3c(=O)c4ccccc4n(C)c23)O1 (stereo not given) | 2.53 | > 10 | > 10 | > 10 | > 10 | > 10 | > 10 | > 10 | > 10 | > 10 |
| CC(C)=CCC[C@]1(C)CC[C@]2(C)C3CCC(=C(C)C)[C@@H](CCCO)[C@]3(C)CC[C@@]2(C)C1 (stereo not given in full) | > 100 | > 100 | > 100 | > 100 | > 100 | > 100 | > 100 | > 100 | > 100 | 77.1 |
| CCOC(=O)c1c(C)n(Cc2ccccc2)c(=O)c2ccccc2c(=O)c2c(=O)ccc(=O)c1=2 | > 100 | > 100 | > 100 | 41.9 | > 100 | > 100 | > 100 | > 100 | > 100 | > 100 |
| CN1CCCN2CCN(C)CCN(CC1)CC2 | > 100 | > 100 | > 100 | > 100 | > 100 | > 100 | > 100 | > 100 | > 100 | > 100 |
| CCOc1c2ccsc2c(OCC)c2ccsc12 | > 100 | > 41.1 | > 73.7 | > 100 | 4.83 | > 28.5 | > 100 | > 100 | > 100 | > 100 |
| CCOC(=O)c1cc2cc(N(C(C)=O)C(C)=O)ccc2s1 | > 100 | > 100 | 37.6 | 46.1 | > 100 | 51 | 46.2 | > 100 | 71.2 | > 100 |
| CN1C2CCC1CC(OC(c1ccccc1)c1ccccc1)C2 (stereo not given) | > 100 | 23.7 | 33.5 | 28.1 | 28.8 | 73.6 | 37.3 | 27.8 | > 100 | 26.6 |
| CCOC(=O)C1(C(=O)OCC)C[C@]23OCCC(=O)[C@H]2[C@H]2C(=O)OC(C)(C)O[C@]23C1 | > 100 | > 100 | > 100 | > 100 | > 100 | > 100 | > 100 | > 100 | > 100 | > 100 |
| CCOC(=O)CC(=O)NC1CC2CCC1(C)C2(C)C (stereo not given) | > 100 | > 100 | > 100 | > 100 | > 100 | > 100 | > 100 | > 100 | > 100 | > 100 |
| COC(=O)c1ccccc1C1CN=NC12Cc1ccc3ccccc3c1C2=O (stereo not given) | > 100 | > 100 | > 100 | > 100 | > 100 | > 100 | > 100 | > 100 | > 100 | > 100 |
| Cc1ccc(/C=C2\CN(C)CC3=C2OC(N)=C(C#N)C3c2ccc(C)cc2)cc1 (stereo not given) | 74.6 | > 69.3 | > 100 | 37.2 | 38.1 | > 51 | > 45.1 | > 71.5 | 35.3 | 43.1 |
| C=C(O)c1ccccc1C#Cc1ccccc1C(=O)OC | > 10 | > 10 | > 10 | > 10 | > 10 | > 10 | > 10 | > 10 | > 10 | > 10 |
| Cn1c(=O)oc2cc(C(=O)CSC(=S)N3CCCCCC3)ccc21 | > 100 | > 100 | > 100 | > 100 | > 100 | > 100 | > 100 | > 100 | > 100 | > 100 |
| S=c1[nH]nc(COc2ccc3c(c2)CCCC3)n1/N=C/c1ccc(Cl)cc1 | 37.2 | 31.2 | 39.7 | 33.1 | 33.5 | 46.9 | 31.2 | 33.1 | 37.9 | 48.1 |
| CC(=O)N=C(N=Nc1c(O)[nH]c2ccc(C)cc12)NC(C)=O | > 100 | > 100 | > 100 | > 100 | > 100 | > 100 | > 100 | > 100 | > 100 | > 100 |
| c1ccc2c(c1)ccc1nc(-c3ccc4c(c3)OCO4)c3c(c12)CCCC3 | > 100 | 41.7 | 28.5 | 63.2 | > 100 | > 100 | > 100 | > 100 | 98.6 | > 100 |
| Cc1ccc(-c2c(C#N)c(-c3ccc(Cl)cc3)c(C#N)c(=O)n2NS(=O)(=O)c2ccccc2)cc1 | > 100 | > 100 | > 100 | > 100 | > 100 | > 100 | > 100 | > 100 | > 100 | > 100 |
| CCOC(=O)/C(C#N)=C/c1ccc2c(-c3c(OCC)ccc4cc(/C=C(\C#N)C(=O)OCC)ccc34)c(OCC)ccc2c1 | > 100 | > 100 | > 100 | > 100 | > 100 | > 100 | > 100 | > 100 | > 100 | > 100 |
| O=C(Cn1c(=O)ccn(C2OC(CO)C(O)C2F)c1=O)c1ccc(F)cc1 (stereo not given) | > 100 | > 100 | > 100 | > 100 | > 100 | > 100 | > 100 | > 100 | > 100 | > 100 |
| O=C(OCCN=C1c2ccccc2CCc2ccccc21)c1cc([N+](=O)[O-])cc([N+](=O)[O-])c1 | > 31.6 | > 31.6 | > 31.6 | > 31.6 | > 31.6 | 7.09 | > 31.6 | > 31.6 | > 31.6 | > 31.6 |
| CCCC1NC(=O)C(CC(C)C)NC(=O)c2cccc(n2)C(=O)NC(CC(C)C)C(=O)NC(CCC)C(=O)NC(C(=O)OC)CCCCNC1=O (stereo not given) | > 100 | > 100 | > 100 | 62.8 | > 100 | 44.8 | 91.3 | 78.9 | > 100 | > 100 |

From PubChem BioAssay (NCI)
